Measured values taken from patent US6723897B2, “Methods for controlling gibberellin levels” (Monsanto Technology, LLC, priority 1998, dated 2004).

Test system: GA-deficient (Line 719, R5) soybeans
Test: Hilum treatment with GA15, GA19, GA24, GA44, hypocotyl length, GA-deficient soybean
Assay type: in vivo, Glycine max
Settings: 10 μg/seed, 5 DAP
Excerpt: Transgenic seeds are fifth generation (R5) line 719 seeds.

Row | SMILES | hypocotyl height of GA-deficient (Line 719) soybeans (FIG. 41)
1 | C=C1C[C@]23C[C@@]1(O)CC[C@H]2[C@]1(C=O)CCC[C@@](C)(C(=O)O)[C@H]1[C@@H]3C(=O)O [GA19] | restored normal or greater hypocotyl height
2 | C=C1C[C@]23C[C@@]1(O)CC[C@H]2[C@@]12CCC[C@@](C)(C(=O)OC1)[C@H]2[C@@H]3C(=O)O [GA44] | restored normal or greater hypocotyl height
